Reference: EP0949270A1, “Synthetic peptides containing citrulline recognized by rheumatoid arthritis sera as tools for diagnosis and treatment” (INNOGENETICS N.V., priority 1998, dated 1999)
Ends that are not written are not given here.

Columns and labels:
[1] = tested on: antifilaggrin antibodies in human sera; experiment: Line Immuno Assay (LIA): reactivity of streptavidin-complexed synthetic peptides with human sera; format: binding; conditions: for LIA signals: 26 human RA sera (Fig. 3), peptides applied at 400 µg/ml, citrulline-containing peptides versus non-modified counterparts; for Reactivity in the LIA system: 75 sera from patients fulfilling the ARA criteria for RA, 13 synthetic peptides tested; for Immunoreaction towards peptide, comparison between peptides: in all serum groups; for Reactivity of sera on synthetic peptides: sera IG35038/ 35041
Source text: Human sera were obtained from the Department of Rheumatology of the University Hospital in Ghent (Belgium). In total, 265 sera were included, of which 75 fulfilled the ARA criteria for RA (Arnett et al., Arthritis Rheum.,31: 315-324, 1987), 155 sera scored positive in the APF fluorescence test (De Keyser et al., in press), 98 reacted with natural filaggrin on Western blot, 80 were APF negative and 16 were derived from healthy controls.
Streptavidin-complexed peptides were applied directly on a nylon membrane with a plastic backing. Blocked strips were incubated overnight with human sera diluted 1/100 in 1 ml PBS, 0.5% caseine, 0.1% Triton X705, 10 mM MgCl2.6H2O. After washing with PBS, 0.05% Tween20, goat anti-human IgG-AP conjugated (Promega) diluted in PBS, 0.1% caseine, 0.2% Triton X705 was added for 1h30. Strips were developed in 100 mM NaCl, 100 mM Tris-HCl, pH 9.8, 50 mM MgCl2.6H2O substrate buffer containing the chromogenic substrate NBT/ BCIP. Reaction was stopped after 30 min by addition of 0.2 N H2SO4.

anti-filaggrin binding = experiment: Inhibition ELISA on plates coated with human natural filaggrin, sera preincubated with competitor; conditions: peptide as competitor at 100 µg/ml; 4 APF positive sera
Procedure: Electro-eluted human natural filaggrin was coated in Maxisorp polystyrene plates at a concentration of 1 or 4 µg/ml in 50 mM carbonate buffer, pH 9.6 overnight at 4°C. Sera were diluted 1/50 in PBS, and preincubated with either the appropriate peptides at 100 µg/ml, with isolated natural filaggrin at 1 or 10 µg/ml (positive control) or with PBS (negative control) for 2 hours. The plates were blocked 1 hour with PBS, 0.1% caseïne at 37°C and subsequently incubated with the sera. During 2 hours at 37°C. Plates were washed 5 times with PBS, 0.05% Tween 20 and incubated with anti-human IgG-HRP in PBS, 0.1 % caseïne, 0.1 mM K3Fe(CN)6. Colour development was performed using tetramethylbenzidine diluted 1/100 into 0.1 M Na2HPO4, 0.1 M citric acid, 0.006% H2O2, pH 4.3. Reaction was stopped by addition of 2N H2SO4 and OD values were measured at 450 nm using a Bio-tek ELISA reader. The percentage of inhibition was caculated as folows: [formula]

[2] = serum group APF neg., number of sera 80
[3] = serum group APF pos., number of sera 155
[4] = serum group Fg blot pos., number of sera 98
[5] = serum group Healthy, number of sera 16
[6] = serum group RA sera, number of sera 75

Row | Sequence | LIA signals [1] | Reactivity in the LIA system [1] | Immunoreaction towards peptide, comparison between peptides [1] | Reactivity of sera on synthetic peptides [1] | Immunoreactivity of human sera with synthetic peptide: number of reactive sera [1, 2] | Immunoreactivity of human sera with synthetic peptide: percentage of reactive sera [1, 2] [%] | Immunoreactivity of human sera with synthetic peptide: number of reactive sera [1, 3] | Immunoreactivity of human sera with synthetic peptide: percentage of reactive sera [1, 3] [%] | Immunoreactivity of human sera with synthetic peptide: number of reactive sera [1, 4] | Immunoreactivity of human sera with synthetic peptide: percentage of reactive sera [1, 4] [%] | Immunoreactivity of human sera with synthetic peptide: number of reactive sera [1, 5] | Immunoreactivity of human sera with synthetic peptide: percentage of reactive sera [1, 5] [%] | Immunoreactivity of human sera with synthetic peptide: number of reactive sera [1, 6] | Immunoreactivity of human sera with synthetic peptide: percentage of reactive sera [1, 6] [%] | number of sera significantly inhibited (anti-filaggrin binding)
1 | DSGHRGYSGSQASDNEGH [IGP1181] (also: Arg may be citrulline in one of each IGP pair, not given here) [reference compound] | disappeared completely | – | – | – | – | – | – | – | – | – | – | – | – | – | –
2 | HSGIGHGQASSAVRDSGHRGYS [IGP1156] (not fully specified; also: Arg may be citrulline in one of each IGP pair, not given here) | positive | Reactivity was noted | best reactive | negative | 4 | 5.5 | 50 | 32.2 | 46 | 48.9 | 2 | 12.5 | 25 | 33.3 | –
3 | HSTSQEGQDTIHGHRGS [IGP1182] (also: Arg may be citrulline in one of each IGP pair, not given here) [reference compound] | disappeared completely | – | – | – | – | – | – | – | – | – | – | – | – | – | –
4 | HSGIGHGQASSAVRDSGHRGYS [IGP1180] (also: Arg may be citrulline in one of each IGP pair, not given here) [reference compound] | disappeared completely | – | – | – | – | – | – | – | – | – | – | – | – | – | –
5 | GGQGSRHQQAR [IGP1249] | – | Reactivity was noted | – | – | 1/79 | 1.3 | 23/150 | 15.3 | 17/94 | 18.1 | 1 | 6.3 | 9/73 | 12.3 | –
6 | HSASQDGQDTIRGHPGSS [IGP1179] (also: Arg may be citrulline in one of each IGP pair, not given here) [reference compound] | disappeared completely | – | – | – | – | – | – | – | – | – | – | – | – | – | –
7 | HSASQDGQDTIRGHPGSS [IGP1155] (also: Arg may be citrulline in one of each IGP pair, not given here) | positive | Reactivity was noted | – | negative | 4 | 5.5 | 35 | 22.6 | 35 | 37.2 | 1 | 6.3 | 17 | 22.7 | 2 out of 4
8 | DSGHRGYSGSQASDNEGH [IGP1157] (also: Arg may be citrulline in one of each IGP pair, not given here) | positive | Reactivity was noted | very faint | negative | 2/61 | 3.3 | 4/128 | 3.1 | 4/94 | 4.2 | 0/10 | 0 | 3/72 | 4.2 | –
9 | HSTSQEGQDTIHGHRGS [IGP1158] (also: Arg may be citrulline in one of each IGP pair, not given here) | positive | Reactivity was noted | best reactive | negative | 5/79 | 6.3 | 42 | 27.1 | 41 | 43.6 | 1 | 6.3 | 24 | 32 | 1
